Where a name gives a salt, the structure may show the parent alone. Read-outs that look alike come from different tables or passages of the source.
What was measured:
tachykinin NK1 receptor = biological target: T1, tachykinin NK1 receptor (Homo sapiens, UniProt P25103); assay: NK1 binding in human IM9 lymphoma cells, displacement of [125I]Bolton Hunter Substance-P
T1 construct: tachykinin NK1 receptor sites in human IM9 lymphoma cells; endogenous in cells; host or cells: human IM9 lymphoma cells

NK1 receptor [1] = biological target: T2, NK1 receptor (Cavia porcellus, UniProt P30547); assay: NK1 antagonist activity in an in vitro NK1 preparation (guinea pig ileum), antagonism of substance-P methylester; assay type: cell-based; details: vs substance-P methylester
T2 construct: Guinea Pig Ileum; from tissue; host or cells: guinea pig ileum
Source text: Therefore, it is expected to be useful in the therapeutic disorders when the attenuation of the NK1 receptor response is the appropriate form of intervention.

NK1 receptor [2] = biological target: T2, NK1 receptor; assay: Inhibition of SPOMe-induced plasma protein extravasation in the guinea pig bladder; assay type: in vivo
Source text: They antagonize the ability of a NK1 receptor selective agonist (SPOMe) to induce plasma protein extravasation in the guinea pig bladder. The protocol is similar to that described by Eglezos, et al., Eur. J. Pharmacol., 209: 277-279 (1991).

T2 sequence (P30547 whole entry): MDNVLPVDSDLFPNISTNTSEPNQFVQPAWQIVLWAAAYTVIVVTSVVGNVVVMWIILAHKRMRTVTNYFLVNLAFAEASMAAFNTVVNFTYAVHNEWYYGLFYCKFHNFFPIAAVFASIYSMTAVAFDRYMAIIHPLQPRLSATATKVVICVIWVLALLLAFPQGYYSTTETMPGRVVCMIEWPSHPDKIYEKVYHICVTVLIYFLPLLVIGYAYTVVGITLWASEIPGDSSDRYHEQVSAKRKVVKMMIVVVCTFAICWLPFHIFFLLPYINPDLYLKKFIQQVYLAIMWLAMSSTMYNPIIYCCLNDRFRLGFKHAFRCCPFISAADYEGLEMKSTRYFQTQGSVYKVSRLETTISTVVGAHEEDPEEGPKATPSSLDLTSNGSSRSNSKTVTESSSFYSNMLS
T1 sequence (P25103 whole entry): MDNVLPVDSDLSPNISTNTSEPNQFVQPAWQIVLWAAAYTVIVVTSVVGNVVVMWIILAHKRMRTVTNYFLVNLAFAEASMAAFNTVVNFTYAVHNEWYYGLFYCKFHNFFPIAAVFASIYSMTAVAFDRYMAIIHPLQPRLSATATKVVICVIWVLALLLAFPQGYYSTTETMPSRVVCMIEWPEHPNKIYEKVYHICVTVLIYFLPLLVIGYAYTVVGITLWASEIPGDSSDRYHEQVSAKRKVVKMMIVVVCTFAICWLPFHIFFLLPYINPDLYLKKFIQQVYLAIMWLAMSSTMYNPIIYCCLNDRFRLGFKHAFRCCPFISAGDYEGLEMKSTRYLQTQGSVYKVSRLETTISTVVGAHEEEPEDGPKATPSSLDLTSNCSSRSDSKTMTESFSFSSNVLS

Row | IC50 (tachykinin NK1 receptor) | Kb (NK1 receptor [1]) | ED50 (NK1 receptor [2]; IV, read-out: ID50 (IV)) | ED50 (NK1 receptor [2]; PO, read-out: ID50 (PO)) | Structure (SMILES)
1 | 58 nM | – | – | – | C[C@](Cc1c[nH]c2ccccc12)(NC(=O)OCc1ccccc1)C(=O)N[C@@H](CO)c1ccccc1 [Example 15, Carbamic acid, [2-[(2-hydroxy-1-phenylethyl)amino]-1-(1H-indol-3-ylmethyl)-1-methyl-2-oxoethyl]-, phenylmethyl ester, [R-(R* R*)]-]
2 | 3.3 nM | 10.6 nM | – | – | C[C@](Cc1c[nH]c2ccccc12)(NC(=O)OCc1ccccc1F)C(=O)N[C@@H](CO)c1ccccc1 [Example 16, Carbamic acid, [2-[(2-hydroxy-1-phenylethyl)amino]-1-(1H-indol-3-ylmethyl)-1-methyl-2-oxoethyl]-, (2-fluorophenyl)methyl ester, [R-(R*,R*)]-]
3 | 9 nM | 6.3 nM | – | – | C[C@](Cc1c[nH]c2ccccc12)(NC(=O)OCc1cc2ccccc2s1)C(=O)N[C@@H](CO)c1ccccc1 [Example 18, Carbamic acid, [2-[(2-hydroxy-1-phenylethyl)amino]-1-(1H-indol-3-ylmethyl)-1-methyl-2-oxoethyl]-, benzo[b]thien-2-ylmethyl ester, [R-(R*,R*)]-]
4 | 3.9 nM | 9.3 nM | – | – | C[C@](Cc1c[nH]c2ccccc12)(NC(=O)OCc1cc(F)ccc1F)C(=O)N[C@@H](CO)c1ccccc1 [Example 17, Carbamic acid, [2-[(2-hydroxy-1-phenylethyl)amino]-1-(1H-indol-3-ylmethyl)-1-methyl-2-oxoethyl]-, (2,5-difluorophenyl)methyl ester, [R-(R*,R*)]]

Second part, the molecule before the results:

Row | Structure (SMILES) | IC50 (tachykinin NK1 receptor) | Kb (NK1 receptor [1]) | ED50 (NK1 receptor [2]; IV, read-out: ID50 (IV)) | ED50 (NK1 receptor [2]; PO, read-out: ID50 (PO))
5 | CC(C)C[C@H](N)C(=O)OC[C@H](NC(=O)[C@@](C)(Cc1c[nH]c2ccccc12)NC(=O)OCc1cc2ccccc2o1)c1ccccc1 [Example 12, L-Leucine, 2-[[2-[[(2-benzofuranylmethoxy)carbonyl]amino]-3-(1H-indol-3-yl)-2-methyl-1-oxopropyl]amino]-2-phenylethyl ester, [R-(R*,R*)]-] | 16 nM | 22 nM | – | –
6 | CN(C)CC(=O)OC[C@H](NC(=O)[C@@](C)(Cc1c[nH]c2ccccc12)NC(=O)OCc1cc2ccccc2o1)c1ccccc1 [Example 9, Glycine, N,N-dimethyl-, 2-[[2-[[(2-benzofuranylmethoxy)carbonyl]amino]-3-(1H-indol-3-yl)-2-methyl-1-oxopropyl]amino]-2-phenylethyl ester, monohydrochloride, [R-(R*,R*)]-] | 12 nM | 6.2 nM | 0.16 mg/kg | 4.4 mg/kg
7 | C[C@](Cc1c[nH]c2ccccc12)(NC(=O)OCc1cc2ccccc2o1)C(=O)N[C@@H](CN)c1ccccc1 [Example 8, Carbamic acid, [2-[(2-amino-1-phenylethyl)amino]-1-(1H-indol-3-ylmethyl)-1-methyl-2-oxoethyl]-, 2-benzofuranylmethyl ester [R-(R*,R*)]-] | 13 nM | 16 nM | – | –
8 | C[C@](Cc1c[nH]c2ccccc12)(NC(=O)OCc1cc2ccccc2o1)C(=O)N[C@@H](CO)c1ccccc1 [Example 6, Carbamic acid, [2-[(2-hydroxy-1-phenylethyl)amino]-1-(1H-indol-3-ylmethyl)-1-methyl-2-oxoethyl]-, 2-benzofuranylmethyl ester, [R-(R*,R*)]-] | 1.2 nM | 1.3 nM | 0.16 mg/kg | 30 mg/kg
9 | CN(C)CC(=O)NC[C@H](NC(=O)[C@@](C)(Cc1c[nH]c2ccccc12)NC(=O)OCc1cc2ccccc2o1)c1ccccc1 [Example 10, Carbamic acid, [2-[[(2-[[(dimethylamino)acetyl]amino]-1-phenylethyl]amino]-1-(1H-indol-3-ylmethyl)-1-methyl-2-oxoethyl]-, 2-benzofuranylmethyl ester, monohydrochloride, [R-(R*,R*)]-] | 84 nM | – | – | –
